Experimental data as given in patent US11766470B2, “Manufacture, formulation and dosing of apraglutide” (VectivBio AG, priority 2020, dated 2023).
Where “and” joins values, the source holds several entries; their conditions need not be identical. Equal entries are not always repeated. Square brackets hold non-standard residues; d marks the D form. Peptide text beside a SMILES is read from it. ξ: configuration not given here. Ile(3ξ) = CCC(C)[C@H](N)C(=O)O; Thr(3ξ) = CC(O)[C@H](N)C(=O)O; Nle = CCCC[C@H](N)C(=O)O

Test system: patients with SBS-IF or SBS-II
Test: Phase 2 open-label metabolic balance trial in SBS-IF and SBS-II patients (Example 6): 72-hour metabolic balance, body composition, plasma L-citrulline
Type: in vivo, human
Settings: 5 mg once weekly
Protocol: Treatment with glucagon-like peptide-2 (GLP-2) analogs promotes intestinal adaptation in patients with short bowel syndrome (SBS). Apraglutide is a novel long-acting GLP-2 analog designed to enable once weekly dosing. This Phase 2 trial investigated the safety and efficacy of once weekly 5 mg apraglutide in patients with SBS intestinal failure (SBS-IF) and SBS intestinal insufficiency (SBS-II). In this open-label trial, 8 adult patients with SBS-IF (n=4) or SBS-II (n=4) and a fecal wet weight of >1500 g/day were treated with once weekly subcutaneous 5 mg apraglutide for 4 weeks. Safety was the primary endpoint. As secondary endpoints changes were examined from baseline in intestinal absorption of wet weight, energy (measured by bomb calorimetry) and electrolytes as well as fecal wet weight and urine production using 72-hour metabolic balance studies. Common treatment-related adverse events were consistent with the physiological effect of GLP-2 and included reduced stoma output (n=6), stoma complication (n=6), nausea (n=5), flatulence (n=4), polyuria (n=3) and abdominal pain (n=3).
A total of nine adult patients (aged ≥18 to ≤80 years) with SBS were screened, eight of whom enrolled in the trial: four patients had SBS-II and four patients had SBS-IF. Both subgroups of patients were included to investigate the safety and efficacy of apraglutide across the disease spectrum. Patient eligibility was assessed during a screening visit. Main inclusion criteria were SBS secondary to surgical resection of the small intestine with or without colon; at least six months since last surgical bowel resection; and a severe degree of malabsorption, defined as a fecal wet weight output≥1,500 g/day and a urine volume production<2000 mL/day.
Fecal output and urine volume production were confirmed during baseline examinations. Patients were excluded if they had clinical signs of active inflammatory bowel disease, a history of cancer within five years or an inadequate hepatic-, kidney- or heart function.
The contents of the buckets were weighed, processed intro dry matter, and analyzed as previously described: energy by bomb calorimetry, nitrogen by Kjeldahl's method, lipid by a modified Van de Kamer titration technique, carbohydrate by Englyst's method, sodium and potassium by flame photometry and calcium and magnesium by atomic absorption spectrometry. A 24-hour average was calculated based on the three 24-hour periods. Absolute changes were calculated as the difference between the baseline and the post-treatment value. Relative changes were calculated as absolute changes divided by baseline values multiplied by 100.
Body weight was measured using a levelled platform scale. Body composition was measured by dual-energy x-ray absorptiometry (Norland XR-36 DXA densitometer, Norland, Ford Atkinson, WI, USA) at baseline and post-treatment.
Blood samples for analysis of the plasma concentration of apraglutide and plasma concentration of fasting L-citrulline, a marker of enterocyte mass, were collected at baseline, during first and second injection (pre-dose and at sequential timepoints), four days after first injection and at the end of treatment. Blood sampling for apraglutide pharmacokinetics was also performed after the fourth and last injection covering 96 hours. […] Blood samples for anti-apraglutide antibodies were collected at baseline, at the end of treatment and at the 4-6 weeks follow-up visit. All eight patients tested negative for anti-apraglutide antibodies at baseline.
The primary endpoint of this trial was safety. Secondary endpoints were absolute and relative changes from baseline in dietary intake, fecal excretion and absorption of wet weight, energy, macronutrients and electrolytes, urine production, urine electrolyte excretion, body weight, body composition, bone mineral content, plasma L-citrulline as well as pharmacokinetic profiles. […]

[1] = comparison with other GLP-2 analogs

CCCC[C@H](NC(=O)[C@H](CCC(=O)O)NC(=O)[C@H](CC(=O)O)NC(=O)[C@H](CO)NC(=O)[C@H](Cc1ccccc1)NC(=O)[C@H](CO)NC(=O)CNC(=O)[C@H](CC(=O)O)NC(=O)CNC(=O)[C@@H](N)Cc1c[nH]cn1)C(=O)N[C@H](Cc1ccccc1)C(=O)N[C@H](C(=O)N[C@H](C(=O)N[C@@H](CC(C)C)C(=O)N[C@@H](CC(=O)O)C(=O)N[C@@H](CC(C)C)C(=O)N[C@@H](CC(C)C)C(=O)N[C@@H](C)C(=O)N[C@@H](C)C(=O)N[C@@H](CCCNC(=N)N)C(=O)N[C@@H](CC(=O)O)C(=O)N[C@@H](Cc1ccccc1)C(=O)N[C@H](C(=O)N[C@@H](CC(N)=O)C(=O)N[C@@H](Cc1c[nH]c2ccccc12)C(=O)N[C@@H](CC(C)C)C(=O)N[C@H](C(=O)N[C@@H](CCC(N)=O)C(=O)N[C@H](C(=O)N[C@@H](CCCCN)C(=O)N[C@H](C(=O)N[C@H](C(=O)N[C@@H](CC(=O)O)C(N)=O)C(C)O)C(C)CC)C(C)O)C(C)CC)C(C)CC)C(C)CC)C(C)O (stereo partly drawn) [apraglutide, L-histidyl-glycyl-L-aspartyl-glycyl-L-seryl-L-phenylalanyl-L-seryl-L-aspartyl-L-glutamyl-L-norleucyl-D-phenylalanyl-L-threonyl-Lisoleucyl-L-leucyl-L-aspartyl-L-leucyl-L-leucyl-L-alanyl-L-alanyl-L-arginyl-L-aspartyl-L-phenylalanyl-L-isoleucyl-L-asparaginyl-Ltryptophanyl-L-leucyl-L-isoleucyl-L-glutaminyl-L-threonyl-L-lysyl-L-isoleucyl-L-threonyl-Laspartic acid amide] (H-HGDGSFSDE[Nle][dF][Thr(3ξ)][Ile(3ξ)]LDLLAARDF[Ile(3ξ)]NWL[Ile(3ξ)]Q[Thr(3ξ)]K[Ile(3ξ)][Thr(3ξ)]D-NH2)
Body weight increase from baseline (4 weeks): 1.8 kg | Bone mineral content change from baseline (4 weeks): -20 g | Calcium, absorption, change from baseline (4 weeks): 11 (−13 to 35); mmol/day | Calcium, dietary intake, change from baseline (4 weeks): −2 (−5 to 2); mmol/day | Calcium, fecal output, change from baseline (4 weeks): −13 (−36 to 11); mmol/day | Calcium, urine excretion, change from baseline (4 weeks): 0 (−1 to 1) mmol/day | Carbohydrate, absorption, change from baseline (4 weeks): 518 (112 to 924); kJ/day | Carbohydrate, dietary intake, change from baseline (4 weeks): 154 (−268 to 575); kJ/day | Carbohydrate, fecal output, change from baseline (4 weeks): −365 (−772 to 43); kJ/day | Energy, dietary intake, change from baseline (4 weeks): 154 (−1,006 to 1,314); kJ/day | Fat mass decrease from baseline (4 weeks): 1.1 kg | Lean body mass increase from baseline (4 weeks): 1.7 kg | Lipid, absorption, change from baseline (4 weeks): 376 (61 to 691); kJ/day | Lipid, dietary intake, change from baseline (4 weeks): 67 (−638 to 771); kJ/day | Lipid, fecal output, change from baseline (4 weeks): −309 (−969 to 351) kJ/day | Magnesium, absorption, change from baseline (4 weeks): 0 (−9 to 9); mmol/day | Magnesium, dietary intake, change from baseline (4 weeks): 1 (−2 to 3); mmol/day | Magnesium, fecal output, change from baseline (4 weeks): 0 (−9 to 9); mmol/day | Magnesium, urine excretion, change from baseline (4 weeks): 1 (−1 to 2), mmol/day | Plasma L-citrulline, absolute increase from baseline (4 weeks): 15.2 µmol/L | Plasma L-citrulline, relative increase from baseline (4 weeks): 66% | Potassium, absorption, change from baseline (4 weeks): 18 (4 to 32; p < 0.05) mmol/day and 18 (4 to 32); mmol/day | Potassium, dietary intake, change from baseline (4 weeks): 4 (−5 to 12); mmol/day | Potassium, fecal output, change from baseline (4 weeks): −15 (−32 to 3); mmol/day | Potassium, urine excretion, change from baseline (4 weeks): 13 (6 to 20); mmol/day | Protein, absorption, change from baseline (4 weeks): 104 (−205 to 412); kJ/day | Protein, dietary intake, change from baseline (4 weeks): −41 (−274 to 191); kJ/day | Protein, fecal output, change from baseline (4 weeks): −145 (−497 to 207); kJ/day | Sodium, absorption, change from baseline (4 weeks): 38 (3 to 74; p < 0.05) mmol/day and 38 (3 to 74); mmol/day | Sodium, dietary intake, change from baseline (4 weeks): −5 (−30 to 21); mmol/day | Sodium, fecal output, change from baseline (4 weeks): −43 (−92 to 6); mmol/day | Sodium, urine excretion, change from baseline (4 weeks): 27 (5 to 49); mmol/day | Wet weight, absorption, change from baseline (4 weeks): 741 (194 to 1287; p < 0.05) g/day and 741 (194 to 1,287); g/day | Wet weight, dietary intake, change from baseline (4 weeks): 61 (−84.0 to 207); g/day | Wet weight, fecal output, change from baseline (4 weeks): −680 (−1200 to −159; p < 0.05) ^ g/day and −680 (−1,200 to −159); g/day | Wet weight, urine (urine production), change from baseline (4 weeks): 560 (72 to 1048; p < 0.05) g/day and 560 (72 to 1,048); g/day | Energy, absorption, change from baseline (4 weeks, bomb calorimetry): 1,095 kJ/day | Potassium, absorption, change from baseline (4 weeks, listed as Apraglutide): 18 mmol/day | Potassium, urine excretion, change from baseline (4 weeks, listed as Apraglutide): 13 mmol/day | Sodium, absorption, change from baseline (4 weeks, listed as Apraglutide): 38 mmol/day | Sodium, urine excretion, change from baseline (4 weeks, listed as Apraglutide): 27 mmol/day | Wet weight, absorption, change from baseline (4 weeks, listed as Apraglutide): 741 g/day | Wet weight, fecal output, change from baseline (4 weeks, listed as Apraglutide): -680 g/day | Wet weight, urine (urine production), change from baseline (4 weeks, listed as Apraglutide): 560 g/day | Change from baseline increase in urinary input [1]: 140.1% | Change in baseline in energy absorption [1]: 1,074 kj/day | Change in baseline in wet weight absorption [1]: 760.4 g/day
